In one series the test system is Apis mellifera. Conditions: acute, mortality.
The subject of another series is Canidae. Conditions: chronic; duration: 53 weeks; oral; Dog Other; organ weight.
Another series concerns Daphnia magna. Conditions: chronic/long-term; duration: 21 days; reproduction.
For another series, the system named is Folsomia candida. Conditions: chronic/long-term; duration: 28 days.
Another series deals with Hypoaspis aculeifer. Conditions: chronic/long-term; duration: 14 days.
A further series deals with Lepomis macrochirus. Conditions: acute; duration: 96 hours; mortality.
In a further series the test system is Oncorhynchus mykiss. Conditions: chronic/long-term; duration: 88 days; other.

A value given as a limit tells only on which side of the number the result lay.

As for `Cc1ccc(C(C)NC(=O)[C@@H](NC(=O)OC(C)C)C(C)C)cc1` (stereo not given in full) [Iprovalicarb], the LD50 in the series with Apis mellifera (dermal) is > 200 µg/piece; with Apis mellifera (oral, unspecified) it was > 199 µg/piece; in the series with Colinus virginianus (acute, oral) it was > 2000 mg/kg-day; in the series on Rattus norvegicus (acute, oral, mortality), > 5000 mg/kg-day. The compound also showed an LOAEL in the series with Canidae of 3 mg/kg-day. The LC50 in the series on Colinus virginianus (acute, oral, diet) was > 1350 mg/kg-day; in the series with Lepomis macrochirus, > 20.7 µg/mL; in the series with Tagia sp. (acute, duration: 14 days, mortality), > 500 mg/kg. Moreover, the NOAEL came out at 161 mg/kg-day with Colinus virginianus (reproduction developmental) and 146 mg/kg-day in the series with Rattus norvegicus (chronic). In addition, the NOEC is 1.89 mg/L in the series with Daphnia magna; ≥ 1000 mg/kg with Folsomia candida; ≥ 1000 mg/kg in the series with Hypoaspis aculeifer; 5 mg/L in the series with Oncorhynchus mykiss; ≥ 64 mg/kg in the series with Tagia sp. (chronic/long-term, duration: 8 weeks).
